From patent US5670501A, “N-substituted 9-alkyladenines” (Discovery Therapeutics, Inc., priority 1994, dated 1997)

How the values were obtained:
adenosine A1 receptor = target: T1, adenosine A1 receptor (Bos taurus, UniProt P28190); assay: Receptor affinity (radioligand binding), A1, [3H]CHA; parameters: species or system bovine; conditions: for Ki: [3H]CHA, room temperature, 2 hours, tissues listed: bovine caudate, guinea pig cortex, guinea pig striatum (only Example 13 marked guinea pig); for Selectivity Ratio (A2 Ki /A1 Ki): radioligand binding
T1 construct: were homogenized with a Brinkman polytron and the membranes were collected by centrifugation; from tissue; host or cells: bovine caudate membranes
T1 sequence (P28190 1-326): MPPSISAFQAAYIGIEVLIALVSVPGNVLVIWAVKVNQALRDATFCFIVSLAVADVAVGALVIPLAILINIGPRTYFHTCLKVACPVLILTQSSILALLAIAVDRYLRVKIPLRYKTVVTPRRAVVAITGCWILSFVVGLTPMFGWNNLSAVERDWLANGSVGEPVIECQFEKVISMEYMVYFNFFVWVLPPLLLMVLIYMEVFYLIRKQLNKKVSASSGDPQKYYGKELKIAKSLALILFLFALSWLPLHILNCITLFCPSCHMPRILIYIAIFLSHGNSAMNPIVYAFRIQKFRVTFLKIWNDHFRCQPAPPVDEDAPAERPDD
Procedure: (§1) 1. Receptor Affinity Experiments (Radioligand Binding)
(§2) Tissues (bovine caudate, guinea pig cortex, guinea pig striatum) were homogenized with a Brinkman polytron and the membranes were collected by centrifugation at 40,000×g at 4° C. for 10 min. The membranes were washed by resuspension and centrifugation, resuspended, and incubated in the presence of 1 U/ml adenosine deaminase for 15-30 min. at 37° C. The membranes were diluted, centrifuged once, and resuspended to a final concentration of 0.5-2 mg protein/ml. Adenosine deaminase (0.1 U/ml) was included in the final resuspension. Assays were initiated by addition of membranes. The compounds of the present invention were subjected to the following experimental conditions: A1 determinations/incubated with [^3 H]CHA at room temperature for 2 hours, A2 determinations/incubated with [^3 H]NECA at room temperature for 1 hour. Assays were terminated by filtration, and the filters were counted in scintillation counters.

adenosine A2 receptor = assay: Receptor affinity (radioligand binding), A2, [3H]NECA; parameters: species or system bovine / guinea pig; conditions: room temperature, 1 hour
Procedure: as §1, §2

What does the source list for `Cn1c(N2CCOCC2)nc2c(N[C@H]3C[C@H]4CC[C@@H]3C4)ncnc21` (relative stereo) [Example 6]?
Ki (adenosine A1 receptor): 24 nM; Selectivity Ratio (A2 Ki /A1 Ki) (adenosine A1 receptor): > 417; Ki (adenosine A2 receptor): > 10000 nM

What does the source list for `Cn1c(N2CCCC2)nc2c(N[C@H]3C[C@H]4CC[C@@H]3C4)ncnc21` (relative stereo) [Example 7]?
Ki (adenosine A1 receptor): 19 nM; Selectivity Ratio (A2 Ki /A1 Ki) (adenosine A1 receptor): > 526; Ki (adenosine A2 receptor): > 10000 nM

With `Cn1c(N2CCSCC2)nc2c(N[C@H]3C[C@H]4CC[C@@H]3C4)ncnc21` (relative stereo) [Example 9] as the compound, how does the Ki (adenosine A1 receptor) read?
Its Ki is 7.94 nM.

What about the “Selectivity Ratio (A2 Ki /A1 Ki)” value (adenosine A1 receptor) of the same compound?
Its value is 1,259.

What about the Ki (adenosine A2 receptor) of the same compound?
Its Ki is 10000 nM.

`CCCCN(C)c1nc2c(N[C@H]3C[C@H]4CC[C@@H]3C4)ncnc2n1C` (relative stereo) [Example 11] was tested. Which Ki (adenosine A1 receptor) did it give?
The Ki was 45.8 nM.

And the “Selectivity Ratio (A2 Ki /A1 Ki)” value (adenosine A1 receptor)?
Its value is 240.

What about the Ki (adenosine A2 receptor) of the same compound?
The Ki was 11000 nM.

With `Cn1c(N2CCOCC2)nc2c(N[C@H]3C[C@@H]4C[C@H]3C[C@@H]4O)ncnc21` (relative stereo) [Example 25] as the compound, how does the Ki (adenosine A1 receptor) read?
The Ki was 19 nM.

What about the “Selectivity Ratio (A2 Ki /A1 Ki)” value (adenosine A1 receptor) of the same compound?
Its value is greater than 526.

And the Ki (adenosine A2 receptor)?
The Ki was greater than 10000 nM.

`CC(C)Nc1nc2c(N[C@@H]3C[C@H]4C[C@@H]3C[C@H]4O)ncnc2n1C` (relative stereo) [Example 26] was tested. Which Ki (adenosine A1 receptor) did it give?
Its Ki is 9.55 nM.

What about the “Selectivity Ratio (A2 Ki /A1 Ki)” value (adenosine A1 receptor) of the same compound?
The value was 602.

What about the Ki (adenosine A2 receptor) of the same compound?
The Ki was 5750 nM.

How did the Ki (adenosine A1 receptor) turn out when `Cn1c(Br)nc2c(N[C@@H]3C[C@H]4C[C@@H]3C[C@@H]4O)ncnc21` (relative stereo) [Example 27] was run?
The Ki was 5.01 nM.

And the “Selectivity Ratio (A2 Ki /A1 Ki)” value (adenosine A1 receptor)?
Its value is 132.

And the Ki (adenosine A2 receptor)?
The Ki was 661 nM.

Which results are given for `CN(C)c1nc2c(N[C@@H]3C[C@@H]4CC(=O)[C@H]3C4)ncnc2n1C` (relative stereo) [Example 28]?
Ki (adenosine A1 receptor): 8.31 nM; Selectivity Ratio (A2 Ki /A1 Ki) (adenosine A1 receptor): 550; Ki (adenosine A2 receptor): 4570 nM

`Cn1cnc2c(N[C@@H]3C[C@H]4C[C@@H]3CC4=O)ncnc21` (relative stereo) [Example 29, (±)-N^6-[endo-2'-aminonorbornan-5-one]-9-methyladenine] was tested. Which Ki (adenosine A1 receptor) did it give?
Its Ki is 501 nM.

What about the “Selectivity Ratio (A2 Ki /A1 Ki)” value (adenosine A1 receptor) of the same compound?
Its value is greater than 20.

And the Ki (adenosine A2 receptor)?
The Ki was greater than 10000 nM.

Which results are given for `Cn1cnc2c(N[C@H]3C[C@H]4C[C@@H]3CC4=O)ncnc21` (relative stereo) [Example 33]?
Ki (adenosine A1 receptor): 42.7 nM; Selectivity Ratio (A2 Ki /A1 Ki) (adenosine A1 receptor): 269; Ki (adenosine A2 receptor): 11500 nM

What does the source list for `Cn1cnc2c(N[C@H]3C[C@@H]4CC(=O)[C@H]3C4)ncnc21` (relative stereo) [Example 34]?
Ki (adenosine A1 receptor): 69.2 nM; Selectivity Ratio (A2 Ki /A1 Ki) (adenosine A1 receptor): 218; Ki (adenosine A2 receptor): 15100 nM

For `Cn1cnc2c(N[C@H]3C[C@H]4C[C@@H]3[C@H](O)C4)ncnc21` (relative stereo) [Example 35], which Ki (adenosine A1 receptor) is on record?
Its Ki is 295 nM.

And the “Selectivity Ratio (A2 Ki /A1 Ki)” value (adenosine A1 receptor)?
The value was 120.

And the Ki (adenosine A2 receptor)?
The Ki was 35500 nM.

Which Ki (adenosine A1 receptor) does the source give for `Cn1cnc2c(N[C@H]3C[C@H]4C[C@@H]3c3ccc(O)cc34)ncnc21` (relative stereo) [Example 37, (±)-N^6-(exo-2'-amino-6'-hydroxybenzonorbornyl)-9-methyladenine] here?
Its Ki is 11.5 nM.

And the “Selectivity Ratio (A2 Ki /A1 Ki)” value (adenosine A1 receptor)?
The value was 397.

What about the Ki (adenosine A2 receptor) of the same compound?
The Ki was 4570 nM.

Which Ki (adenosine A1 receptor) does the source give for `CCCn1cnc2c(N[C@@H]3C[C@H]4C[C@@H]3C[C@H]4O)ncnc21` (relative stereo) [Example 42] here?
Its Ki is 28.8 nM.

And the “Selectivity Ratio (A2 Ki /A1 Ki)” value (adenosine A1 receptor)?
The value was 224.

What about the Ki (adenosine A2 receptor) of the same compound?
The Ki was 6460 nM.

`CCCn1cnc2c(N[C@@H]3C[C@H]4C[C@@H]3C[C@@H]4O)ncnc21` (relative stereo) [Example 43] was tested. Which Ki (adenosine A1 receptor) did it give?
Its Ki is 257 nM.

What about the “Selectivity Ratio (A2 Ki /A1 Ki)” value (adenosine A1 receptor) of the same compound?
Its value is greater than 39.

And the Ki (adenosine A2 receptor)?
The Ki was greater than 10000 nM.

For `CC(C)n1cnc2c(N[C@@H]3C[C@H]4C[C@@H]3CC4=O)ncnc21` (relative stereo) [Example 44], which Ki (adenosine A1 receptor) is on record?
The Ki was 251 nM.

What about the “Selectivity Ratio (A2 Ki /A1 Ki)” value (adenosine A1 receptor) of the same compound?
The value was 85.

And the Ki (adenosine A2 receptor)?
Its Ki is 21400 nM.

What does the source list for `CC(C)n1cnc2c(N[C@@H]3C[C@H]4C[C@@H]3C[C@H]4O)ncnc21` (relative stereo) [Example 45]?
Ki (adenosine A1 receptor): 295 nM; Selectivity Ratio (A2 Ki /A1 Ki) (adenosine A1 receptor): > 34; Ki (adenosine A2 receptor): > 10000 nM

How did the Ki (adenosine A1 receptor) turn out when `CC(C)n1cnc2c(N[C@@H]3C[C@H]4C[C@@H]3C[C@@H]4O)ncnc21` (relative stereo) [Example 46] was run?
The Ki was 295 nM.

And the “Selectivity Ratio (A2 Ki /A1 Ki)” value (adenosine A1 receptor)?
Its value is greater than 34.

What about the Ki (adenosine A2 receptor) of the same compound?
The Ki was greater than 10000 nM.

Which results are given for `CCN(CC)c1nc2c(NC3CCCC3)ncnc2n1C` [Example 14]?
Ki (adenosine A1 receptor): 3.72 nM; Selectivity Ratio (A2 Ki /A1 Ki) (adenosine A1 receptor): 117; Ki (adenosine A2 receptor): 436 nM
